Reference: US6544967B2, “Method for inhibiting bone resorption” (Merck & Co., Inc., priority 1997, dated 2003)

System: canine esophagus tissue
Experiment: Esophageal irritation potential, dog model (esophageal infusion in simulated gastric juice, histopathology)
Type: in vivo
Settings: for Histopathology of esophagus (photomicrographs): 50 mL; for Esophageal irritation potential: low dosages on consecutive days (Group 7 risedronate, Group 8 tiludronate)
Procedure: The esophageal irritation potential of the bisphosphonates is evaluated using a dog model.
The following solutions are prepared:
(1) simulated gastric juice (pH about 2), i.e. the control solution.
(5) simulated gastric juice (pH about 2) containing about 0.20 mg/mL of risedronate sodium on a risedronic acid active basis.
(6) simulated gastric juice (pH about 2) containing about 4.0 mg/mL of tiludronate disodium on a tiludronic acid active basis.
The simulated gastric juice is prepared by dissolving about 960 mg of pepsin (L-585,228000B003, Fisher Chemical) in about 147 mL of 0.90 (wt %) NaCl (aqueous), adding about 3 mL of 1.0 M HCl (aqueous), and adjusting the volume to about 300 mL with deionized water. The pH of the resulting solution is measured and if necessary is adjusted to about 2 using 1.0 M HCl (aqueous) or 1.0 M NaOH (aqueous).
The animals used in the experiments are anesthetized and administered about 50 mL of the appropriate solution over about 30 minutes by infusion into the esophagus using an infusion pump and a rubber catheter. The following treatment experiments are run:
Group 1: This control group contains four animals. Each animal is administered a dosage of about 50 mL of simulated gastric juice [solution (1)] on each of five consecutive days. The animals are sacrificed immediately after the last dose is administered.
Group 2: This group contains four animals. […] The animals are sacrificed immediately after the last dose is administered.
Group 3: This group contains five animals. […] The animals are sacrificed about 24 hours after the dose is administered.
Group 4: This group contains five animals. […] The animals are sacrificed about 7 days after the dose is administered.
Group 5: This group contains six animals. […] The animals are administered a total of four dosages. The animals are sacrificed about 7 days after the last dose is administered.
Group 6: This group contains six animals. […] The animals are administered a total of eight dosages. The animals are sacrificed about four days after the last dose is administered.
Group 7: This group contains eight animals. Each animal is administered a dosage of about 50 mL of simulated gastric juice containing about 0.20 mg/mL of risedronate [solution (5)] on each of five consecutive days. The animals are sacrificed immediately after the last dose is administered.
Group 8: This group contains four animals. Each animal is administered a dosage of about 50 mL of simulated gastric juice containing about 4.0 mg/mL of tiludronate on each of five consecutive days. The animals are sacrificed immediately after the last dose is administered.
The esophagus from each sacrificed animal is removed and prepared for histopathology using standard techniques by embedding the tissue in paraffin, staining with hematoxylin and eosin. The sections are examined microscopically.

Compound | Histo-pathology (Group 2 (n = 4): 0.20 mg/mL, 50 mL in simulated gastric juice pH about 2, 1X daily for 5 days, sacrifice immediately after last dosing, monosodium trihydrate) | Histo-pathology (Group 3 (n = 5): 0.80 mg/mL, 50 mL in simulated gastric juice, 1X, sacrifice 24 hours after dosing, monosodium trihydrate) | Histo-pathology (Group 4 (n = 5): 0.80 mg/mL, 50 mL in simulated gastric juice, 1X, sacrifice 7 days after dosing, monosodium trihydrate) | Histo-pathology (Group 5 (n = 6): 0.80 mg/mL, 50 mL in simulated gastric juice, 1X weekly for a total of 4 doses, sacrifice 7 days after last dosing, monosodium trihydrate) | Histopathology of esophagus (photomicrographs) (Group 6: 0.40 mg/mL, twice per week for four weeks (eight dosages), sacrifice about four days after last dose) | Histo-pathology (Group 7 (n = 8): 0.20 mg/mL, 50 mL in simulated gastric juice, 1X daily for 5 days, sacrifice immediately after last dosing) | Esophageal irritation potential | Histopathology of esophagus (photomicrographs) (Group 8: 4.0 mg/mL, five consecutive days, sacrifice immediately after last dose)
NCCCC(O)(P(=O)(O)O)P(=O)(O)O [Alendronate, 4-amino-1-hydroxybutylidene-1,1-bisphosphonic acid monosodium trihydrate] | deep ulceration of the epithelial surface and marked submucosal inflammation and vacuolation | intact epithelial surface with very slight submucosal inflammation and vacuolation | intact epithelium with either minimal inflammation (two of the five animals) or no inflammation (three of the five animals) and no vacuolation | normal with an intact epithelium and absence of inflammatory cells in the submucosa | deep ulceration of the epithelial surface and marked submucosal inflammation and vacuolation |  |  | 
O=P(O)(O)C(O)(Cc1cccnc1)P(=O)(O)O [Risedronate, 1-hydroxy-2-(3-pyridinyl)-ethylidene-1,1-bisphosphonic acid] |  |  |  |  |  | deep ulceration of the epithelial surface and marked submucosal inflammation and vacuolation | high | 
O=P(O)(O)C(Sc1ccc(Cl)cc1)P(=O)(O)O [Tiludronate, (4-chlorophenyl)thiomethane-1,1-disphosphonic acid] |  |  |  |  |  |  | high | slight ulceration of the epithelial surface and slight submucosal inflammation and vacuolation
